Patent publication US8716309B2, “Pharmaceutical composition comprising pyridone derivatives” (priority 2011, dated 2014)

How the values were obtained:
human α7 nAChR = human α7 nAChR (Homo sapiens, UniProt P36544); experiment: cell-based; conditions: EC50 of human α7nAChR(nM), HEK293T/17 cells transfected with human α7 nAChR; PNU-120596 added; relative to epibatidine 1 μM positive control
Male ICR mice = experiment: Novel Object Recognition Test (NORT), MK-801 induced amnesia; assay type: in vivo; conditions: Mus musculus; ip; dose at which the relative RI is given; doses 0.03˜3 mg/kg; read-out: NORT MED

Sequence of human α7 nAChR (P36544 23-502): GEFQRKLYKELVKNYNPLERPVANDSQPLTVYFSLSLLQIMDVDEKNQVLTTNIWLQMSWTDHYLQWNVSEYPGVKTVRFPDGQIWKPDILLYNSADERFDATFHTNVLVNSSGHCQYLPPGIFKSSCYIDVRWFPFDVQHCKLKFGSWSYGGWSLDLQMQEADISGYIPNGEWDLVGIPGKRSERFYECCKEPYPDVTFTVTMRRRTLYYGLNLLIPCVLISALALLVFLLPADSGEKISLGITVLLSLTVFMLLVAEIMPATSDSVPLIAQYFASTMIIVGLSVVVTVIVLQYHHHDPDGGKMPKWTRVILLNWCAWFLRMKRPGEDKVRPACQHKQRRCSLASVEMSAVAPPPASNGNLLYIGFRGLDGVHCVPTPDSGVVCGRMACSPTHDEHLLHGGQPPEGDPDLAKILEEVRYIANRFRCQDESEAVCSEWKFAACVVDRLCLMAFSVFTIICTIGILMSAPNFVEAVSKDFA

SMILES	EC50 (human α7 nAChR) [nM]	minimal effective dose (Male ICR mice) [mg/kg]
O=C(N[C@H]1CN2CCC1CC2)c1ccc(=O)n(-c2ccc(Cl)cc2)c1 [Example 5, N-[(3R)-1-azabicyclo[2.2.2]octan-3-yl]-1-(4-chlorophenyl)-6-oxopyridine-3-carboxamide]	> 1000	0.1
O=C(NC1CN2CCC1CC2)c1ccc(=O)n(-c2ccc(-c3ccccc3)cc2)c1 (stereo not drawn) [Example 65, N-(1-azabicyclo[2.2.2]octan-3-yl)-1-(4-phenylphenyl)-6-oxo-3-pyridinecarboxamide]	100 to 500	1
CSc1ccccc1-n1cc(C(=O)NC2CN3CCC2CC3)ccc1=O (stereo not drawn) [Example 77, N-(1-azabicyclo[2.2.2]octan-3-yl)-1-[2-(methylthio)phenyl]-6-oxo-3-pyridinecarboxamide]	< 100	0.1
